# Source: ChEMBL document CHEMBL1201862, “PubChem BioAssay data set” (2004)
# Active and inactive are the calls of the source. No stated cut-off is given here; in the data, actives have a measured IC50 and inactives only a lower limit.
# Target: Envelope glycoprotein gp160 (Human immunodeficiency virus 1, UniProt Q6QLK5)
# Assay: cell-free HIV fusion peptide-binding blockers – biochemical, uHTS, fluorescence dequenching, […] (AID 1986)
# Envelope glycoprotein gp160, sequence (Q6QLK5 whole entry, the tested form may be a part): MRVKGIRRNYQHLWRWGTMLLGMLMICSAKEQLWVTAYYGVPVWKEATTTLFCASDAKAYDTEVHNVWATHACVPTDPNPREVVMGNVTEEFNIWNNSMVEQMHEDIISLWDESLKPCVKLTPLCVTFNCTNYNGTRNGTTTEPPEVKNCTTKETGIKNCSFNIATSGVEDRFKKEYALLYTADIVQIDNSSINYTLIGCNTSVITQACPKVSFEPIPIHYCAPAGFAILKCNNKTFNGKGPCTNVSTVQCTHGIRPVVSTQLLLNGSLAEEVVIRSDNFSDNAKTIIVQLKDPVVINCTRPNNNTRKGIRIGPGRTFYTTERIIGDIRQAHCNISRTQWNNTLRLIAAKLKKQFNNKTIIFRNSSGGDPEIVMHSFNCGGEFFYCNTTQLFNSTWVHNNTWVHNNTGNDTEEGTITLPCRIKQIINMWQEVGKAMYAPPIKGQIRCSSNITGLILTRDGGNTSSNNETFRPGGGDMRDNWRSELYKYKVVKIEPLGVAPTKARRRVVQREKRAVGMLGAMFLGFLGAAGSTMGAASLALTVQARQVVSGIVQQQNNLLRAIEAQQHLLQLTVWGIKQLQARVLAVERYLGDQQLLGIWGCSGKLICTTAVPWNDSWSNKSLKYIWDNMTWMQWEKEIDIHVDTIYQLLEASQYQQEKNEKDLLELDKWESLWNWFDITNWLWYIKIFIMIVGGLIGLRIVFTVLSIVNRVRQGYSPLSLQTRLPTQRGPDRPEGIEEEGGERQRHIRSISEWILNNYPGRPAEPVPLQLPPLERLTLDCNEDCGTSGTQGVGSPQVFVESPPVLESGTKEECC
row,Compound,IC50
1,CCCOc1ccc(C(=O)NNC(=S)NC(=O)c2cc(-c3ccc(Cl)cc3)nc3ccccc23)cc1,19.9 µM (active)
2,O=C1/C(=C2\C(=O)N(Cc3ccc(F)cc3)c3ccccc32)SC(=S)N1CCS(=O)(=O)O,15 µM (active)
3,CCOc1cc(/C=N/NC2=NC(=O)C(CC(=O)O)S2)ccc1OCc1ccc(Cl)cc1 (stereo not drawn),24.6 µM (active)
